Results reported in ChEMBL document CHEMBL1201862, “PubChem BioAssay data set” (2004).
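Growth conditions: 96-well plates. Treatment: test compound, 48 hours, 5 concentrations. Analysis: linear interpolation between bracketing concentrations; unreached endpoints set to highest concentration. Here, GI50 denotes the concentration required for 50% inhibition of growth.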 Activity calls are given as the source filed them. Rule as the data show it: active = GI50 up to about 1.1 µM and inactive = higher.

Columns and labels:
Assay in all cases: NCI-60 cell line screen, 48 h
RPMI-8226 = system: RPMI-8226
A498 = system: A498
HCT-15 = system: HCT-15
MOLT-4 = system: MOLT-4
CCRF-CEM = system: CCRF-CEM
SF-295 = system: SF-295
HCC 2998 = system: HCC 2998
MDA-MB-435 = system: MDA-MB-435
NCI-H226 = system: NCI-H226
OVCAR-8 = system: OVCAR-8
HCT-116 = system: HCT-116
MCF7 = system: MCF7
SK-MEL-5 = system: SK-MEL-5
PC-3 = system: PC-3
SK-MEL-2 = system: SK-MEL-2
786-0 = system: 786-0
DU-145 = system: DU-145
SNB-19 = system: SNB-19
OVCAR-3 = system: OVCAR-3
Hs-578T = system: Hs-578T

Structure (SMILES) | GI50 (RPMI-8226) | GI50 (A498) | GI50 (HCT-15) [µM] | GI50 (MOLT-4) | GI50 (CCRF-CEM) | GI50 (SF-295) | GI50 (HCC 2998) | GI50 (MDA-MB-435) | GI50 (NCI-H226) | GI50 (OVCAR-8) | GI50 (HCT-116) | GI50 (MCF7) | GI50 (SK-MEL-5) | GI50 (PC-3) | GI50 (SK-MEL-2) | GI50 (786-0) | GI50 (DU-145) | GI50 (SNB-19) | GI50 (OVCAR-3) | GI50 (Hs-578T)
O=C(c1cscc1CCc1ccccc1)c1cscc1CCc1ccccc1 | > 100 µM (inactive) | > 100 µM (inactive) | > 100 | > 100 µM (inactive) | > 100 µM (inactive) | > 100 µM (inactive) | > 100 µM (inactive) | > 100 µM (inactive) | > 100 µM (inactive) | > 100 µM (inactive) | > 100 µM (inactive) | > 100 µM (inactive) | > 100 µM (inactive) | > 100 µM (inactive) | > 100 µM (inactive) | > 100 µM (inactive) | > 100 µM (inactive) | > 100 µM (inactive) | – | –
CCOC(=O)COc1cc(-c2ccccc2)nc2cc(F)ccc12 | > 100 µM (inactive) | > 100 µM (inactive) | > 100 | > 100 µM (inactive) | 85.7 µM (inactive) | > 100 µM (inactive) | > 100 µM (inactive) | > 100 µM (inactive) | > 100 µM (inactive) | > 100 µM (inactive) | > 100 µM (inactive) | > 100 µM (inactive) | > 100 µM (inactive) | > 100 µM (inactive) | > 100 µM (inactive) | > 100 µM (inactive) | > 100 µM (inactive) | – | > 100 µM (inactive) | –
O=c1oc2ccccc2cc1-c1nc2ccccc2c(=O)[nH]1 | > 100 µM (inactive) | – | > 100 | > 100 µM (inactive) | > 100 µM (inactive) | 54 µM (inactive) | > 100 µM (inactive) | > 100 µM (inactive) | > 100 µM (inactive) | > 100 µM (inactive) | > 100 µM (inactive) | 12 µM (inactive) | > 100 µM (inactive) | > 100 µM (inactive) | > 100 µM (inactive) | > 100 µM (inactive) | > 100 µM (inactive) | > 100 µM (inactive) | – | > 100 µM (inactive)
C/C=C(/C)c1cnc(CC(C)C)c(=O)[nH]1 | 0.35 µM (active) | > 100 µM (inactive) | > 100 | > 100 µM (inactive) | > 100 µM (inactive) | > 100 µM (inactive) | > 100 µM (inactive) | > 100 µM (inactive) | – | > 100 µM (inactive) | > 100 µM (inactive) | – | > 100 µM (inactive) | > 100 µM (inactive) | > 100 µM (inactive) | > 100 µM (inactive) | > 100 µM (inactive) | > 100 µM (inactive) | > 100 µM (inactive) | > 100 µM (inactive)
CC(CC(=O)CO[C@H]1[C@H](O)[C@@H](O)[C@@H](O)[C@@H]2NC(=O)c3c(cc4c(c3O)OCO4)[C@H]21)OC1OC(CO)C(O)C(O)C1O (stereo partly specified) | 0.397 µM (active) | 1.09 µM (active) | 0.396 | 0.25 µM (active) | 0.182 µM (active) | 1.12 µM (active) | 0.218 µM (active) | 0.392 µM (active) | 0.522 µM (active) | 0.313 µM (active) | 0.275 µM (active) | 0.283 µM (active) | 0.322 µM (active) | 0.338 µM (active) | 0.242 µM (active) | 0.451 µM (active) | – | 0.304 µM (active) | 0.451 µM (active) | 0.4 µM (active)
O=Cc1ccc(-c2ccc(-c3ccc(C=O)s3)o2)s1 | > 100 µM (inactive) | 0.284 µM (active) | 61.5 | > 75.7 µM (inactive) | > 43.6 µM (inactive) | > 77.3 µM (inactive) | 18 µM (inactive) | 71.4 µM (inactive) | 0.656 µM (active) | > 100 µM (inactive) | 8.53 µM (inactive) | – | > 87.7 µM (inactive) | > 100 µM (inactive) | > 90.6 µM (inactive) | 23.8 µM (inactive) | > 100 µM (inactive) | > 88.1 µM (inactive) | 1.44 µM (inactive) | –
CNc1nc(N)c(N=O)c(Nc2ccc(Br)cc2)n1 | > 100 µM (inactive) | – | > 100 | 68.4 µM (inactive) | 81.8 µM (inactive) | > 100 µM (inactive) | > 100 µM (inactive) | > 100 µM (inactive) | – | > 100 µM (inactive) | > 100 µM (inactive) | > 100 µM (inactive) | > 100 µM (inactive) | > 100 µM (inactive) | > 100 µM (inactive) | > 100 µM (inactive) | > 100 µM (inactive) | > 100 µM (inactive) | > 100 µM (inactive) | 5.35 µM (inactive)
COc1cccc(C2SC(=N)Nc3c2c(C)nn3C(=O)c2ccccc2O)c1 (stereo unspecified) | > 10 µM (inactive) | 7.78 µM (inactive) | > 5.7 | > 2.44 µM (inactive) | > 3.21 µM (inactive) | 3.2 µM (inactive) | > 10 µM (inactive) | 1.76 µM (inactive) | > 2.56 µM (inactive) | > 2.76 µM (inactive) | > 2.14 µM (inactive) | > 3.11 µM (inactive) | > 6.53 µM (inactive) | > 10 µM (inactive) | > 7.23 µM (inactive) | > 3.79 µM (inactive) | > 2.44 µM (inactive) | > 10 µM (inactive) | > 3.65 µM (inactive) | –
